{
  "source": "patent US20260041694A1",
  "about": "“Udonitrectag For Topical Use In The Treatment Of Dermatological Diseases” (MIMETECH S.R.L., priority 2022, published 2026)",
  "key": {"male C57BL/6 mice": {"test_system": "male C57BL/6 mice", "assay": "In vivo model of androgenetic alopecia (DHT-injected mice)", "details": "Udonitrectag 100 μM in PBS, topical twice a day for 2 weeks; vs vehicle", "method": "Udonitrectag was studied in an in vivo model of androgenetic alopecia.\nFor this purpose, male C57BL/6 mice were shaved with an animal clipper at 8 weeks of age, when all follicles are in the telogen phase. After depilation, 4 mg of DHT (dissolved in 100 μL of ethanol) were injected subcutaneously into the back of each animal. The mice were then divided into two groups: vehicle-treated and treated with Udonitrectag 100 μM in PBS. Udonitrectag 100 μM solution, or vehicle (PBS only) were applied topically twice a day for 2 weeks and hair growth was recorded at the beginning and at the end of treatment."}, "[1]": {"test_system": "human keratinocytes (HACAT cell line)", "assay": "In vitro wound healing model, scratched keratinocyte monolayer", "type": "cell-based", "details": "50 μM MT8, compared to control medium", "method": "To evaluate whether MT8 is able to induce faster healing of injured human keratinocytes (HACAT cell line) monolayers, an in vitro “wound healing” model was used. HACAT cells were seeded in 6-well culture dishes and grown to 90%-95% confluency. A standardized wound was created by scratching the HACAT cell monolayer with a sterile micropipette tip under an inverted microscope. Then, the cells were washed with PBS and treated with 50 μM MT8 or 4 nM NGF, and images of the wound healing process were recorded at different time points."}, "skin lesions / wounds": {"test_system": "skin lesions / wounds", "assay": "Topical treatment of skin lesions and wounds in patients (Examples 19-29)", "type": "in vivo, human", "details": "topical application", "description": "Inoperable antibiotic multi-resistance. […] The jagged edges of the lesion are erythematous and infected. The periwound skin is erythematous and edematous, with erythema extending to the malleolar area. The lesion is lightly exuding, with foul-smelling, serous exudate. Contaminated/infected wound. When changing the dressing, the pain expressed is equal to 8 (VAS pain scale); there is still discomfort and sometimes pain even when the dressing is not changed. Complex wound due to comorbidities. • Treatment with Udonitrectag: Wound cleaning performed with sterile saline solution (0.9% sodium chloride) and Microdacyn, followed by Urgotul and finally 1% Udonitrectag gel-cream, covered with a light dressing; 2 dressing changes per week for a total of 5 dressings with 1% Udonitrectag gel-cream."}, "[2]": {"test_system": "Human Umbilical Vein Endothelial Cells (HUVECs)", "assay": "In vitro AGE-induced endothelial dysfunction, ATP content by CellTiter Glo", "type": "cell-based", "details": "20 µM MT8; HUVECs on ECM-AGE-coated plates, 4 days", "method": "BSA-AGE and ECM-AGE were produced by Maillard reaction and Amadori rearrangement and used to evaluate oxidative stress and apoptosis process induced by AGEs in endothelial cell cultures.\nTo evaluate whether MT8 is able to counteract AGE-induced endothelial cell dysfunction, Human Umbilical Vein Endothelial Cells (HUVECs) were seeded on ECM-AGE-coated plates and incubated with complete growth medium, in the presence or absence of 20 µM MT8, or 2 nM NGF+2 nM BDNF for 4 days. The cells were then lysed with 100 µL of CellTiter Glo, which allows for ATP release from the cells. The ATP content (directly proportional to cell viability) was measured by luciferase assay."}, "[3]": {"test_system": "psoriasis lesions on the calves of both legs", "assay": "Treatment of psoriasis in a patient", "type": "in vivo, human", "details": "one patient", "excerpt": "A patient diagnosed with psoriasis having lesions on the calves of both legs underwent the following treatment:\n• FAGRON: galenic preparation (0.05% clobetasol propionate, 10% urea in occluvan q.s. to 100%)"}},
  "data": [
    {"substance": "(1S,4R,5R,7S)-3,4-dibenzyl-2-oxo-6,8-dioxa-3-azabicyclo[3.2.1]octane-7-carboxylic acid lysine salt [Udonitrectag]", "values": [
      {"measurement": "hair regrowth", "setting": "male C57BL/6 mice", "value": "induces hair regrowth much faster and more intensively than vehicle treatment"},
      {"measurement": "wound repair process (wound distances as a function of time)", "setting": "[1]", "value": "induces a faster repair process"},
      {"measurement": "healing of skin lesions incurable with other treatments (FIGS. 6-16)", "setting": "skin lesions / wounds", "value": "healing of severe skin lesions"},
      {"measurement": "endothelial cell viability (ATP content)", "setting": "[2]", "value": "able to maintain endothelial cell viability"},
      {"measurement": "psoriasis status at skin examination two years after the end of the treatment", "setting": "[3]; left and right leg, both legs last treated with Udonitrectag 0.5% gel-cream", "value": "completely healed"},
      {"measurement": "improvement of psoriatic lesions during treatment", "setting": "[3]; topical, Udonitrectag as 0.5% gel-cream, regimen per leg over days 1-30", "value": "produced visible improvements in the lesions"}
    ]}
  ]
}
